Assay results as given in PMC8944987, “In Vivo Efficacy of SQ109 against Leishmania donovani, Trypanosoma spp. and Toxoplasma gondii and In Vitro Activity of SQ109 Metabolites” (Biomedicines, 2022).
Where two headings read alike, the source gives them in different places.

Assays:
[1] = system: T. cruzi Dm28c epimastigotes; assay: T. cruzi epimastigotes assay (resazurin); type: cell-based; details: Trypanosoma cruzi, read-out: T. cruzi Dm28c EC50 (EPI)
Method: The exponential growth phase of epimastigotes were treated with different concentrations of drugs or 0.1% DMSO as negative control and incubated for 3 days at 28 °C. The viability of parasites was quantified with resazurin as described in the T. brucei assay.

[2] = system: L. donovani promastigotes; assay: L. donovani promastigotes assay (resazurin); type: cell-based; details: for EC50: read-out: L. donovani EC50 (PRO)
[3] = system: intracellular T. cruzi Dm28c amastigotes in U2OS; assay: T. cruzi intracellular amastigotes assay in U2OS (image based); type: cell-based; details: Trypanosoma cruzi; for EC50: read-out: T. cruzi Dm28c EC50 (AMA)
Method: (§1) U2OS human osteosarcoma cells were maintained in DMEM supplemented with high glucose, 10% FBS, and 1% P/S at 37 °C with 5% CO2 in air. […] Cell images were acquired by an automated image analyzer (Operetta, Perkin Elmer Technology, Waltham, MA, USA); analysis included at least 1000 cells in five fields per well. For the imaging of infected cells and parasites, Draq-5 was observed under a 20× air objective. An image analysis algorithm (Columbus, Perkin Elmer Technology) was used to detect the Draq-5 signal in the nuclei of cells and parasites as described in a previous article and shown in Supplementary Figure S1 [20]. The number of parasites was defined by the value of the number of parasites in infected cells of the acquired image.

[4] = system: T. b. brucei Lister strain 427 bloodstream form (BSF); assay: In vitro activity assay for T. brucei (resazurin growth inhibition); type: cell-based; details: Trypanosoma brucei
[5] = Host cell toxicity in the T. cruzi amastigote assay; type: cell-based; details: human, amastigote host cells; read-out: T. cruzi Dm28c CC50 (U2OS)
Method: as §1

T. cruzi = system: T. cruzi; parameters: method as in earlier work; details: amiodarone acting alone; reported previously; ref 5 (b3); cited from earlier work
T. cruzi Dm28c = assay: T. cruzi acute in vivo mouse model; parameters: species or system BALB/c mice; details: 100 mg/kg p.o.
Source text: BALB/c mice were infected with TCT of T. cruzi Dm28c (10^7 cells) by i.p. injection. Five days post-infection, infected mice were sacrificed to collect BSF of T. cruzi. BALB/c mice were intraperitoneally infected with BSF of T. cruzi Dm28c (5 × 10^4 cells). Five days post-infection, BALB/c mice were infected with previously collected 2nd-round BSF cells (3 × 10^4 cells). Mice were divided into groups (n = 10) and treated orally with drugs for 5 consecutive days for 2 weeks by starting from day 2 post-infection administration of DPBS, 100 mg/kg of benznidazole, or 100 mg/kg of SQ109 via p.o. route, respectively. Parasitemia was evaluated every 2 days for 5 weeks by blood collection from the mouse tail vein, and survival was monitored for 2 months. Mice showing impaired health status were euthanized.

[6] = system: intracellular L. donovani amastigotes in THP-1; assay: L. donovani intracellular amastigotes assay in THP-1 (image based); type: cell-based; details: Leishmania donovani, 72 h; differentiated THP-1 host cells, 3 days of compound incubation; Figure 2F
L. donovani amastigotes = assay: L. donovani (VL) in vivo mouse model, liver LDU; parameters: species or system BALB/c mice; details: 30 mg/kg
Method: BALB/c mice (n = 5) were injected with 2 × 10^7 hamster spleen-derived L. donovani amastigotes via the retro-orbital venous sinus route. From day 7 post-infection, groups of mice were treated using the drug vehicle only, miltefosine (30 mg/kg), or SQ109 (30, 50, 100 mg/kg). On day 16 post-infection, all animals were humanely euthanized and assessed microscopically using Giemsa-stained liver imprints. […] The LDU values for the drug-treated samples were compared to those of the untreated samples.

[7] = system: THP-1 human monocyte cell line; assay: Host cell toxicity in the L. donovani amastigote assay; type: cell-based; details: 3 days of compound incubation; Figure 2F
Method: The THP-1 human monocyte cell line was grown in RPMI-1640 medium (Welgene, Gyeongsangbuk-do, Republic of Korea) supplemented with 10% FBS and 1% P/S. For differentiation, THP-1 cells were treated for 3 days with 50 ng/mL of PMA [20]. […] An image analysis was performed as described in the T. cruzi assay (Figure S2).

[8] = Leishmania donovani, promastigotes
[9] = bloodstream forms, read-out: T. brucei BSF EC50 (converted)

SMILES	EC50 ([1]; epimastigotes) [µM]	EC50 [2, 8] [µM]	EC50 ([3]; amastigotes in U2OS) [µM]	EC50 [4, 9] [µM]	CC50 at 3 days [5] [µM]	further results
NCCNC1C2CC3CC(C2)CC1C3 (centres unmarked) [Compound 7]	56	22	25	4.6	> 100	
C/C(=C\CC/C(C)=C/CNCCNC1C2CC3CC(C2)CC1C3)CO (centres unmarked) [Compound 9]	28	2.9	4.9	5.4	27	
C/C(=C\CNCCNC1C2CC3CC(C2)CC1C3)CCC(=O)C(C)C (centres unmarked) [Compound 12]	45	0.55	6.9	2	32	
CC(C)=CCC/C(C)=C/C=O [Compound 13]	> 100	> 100	> 100	2.3	> 100	
CC(C)=CCC/C(C)=C/C(=O)O [Compound 14]	> 100	> 100	> 100	13	> 100	
CC(C)=CCCC(C)=CC=NO [Compound 15a]	> 100	> 100	> 100	> 200	> 100	
CC(C)=CCCC1(C)CC=NO1 (centres unmarked) [Compound 15b]	> 100	> 100	> 100	> 200	> 100	
ON=C1C2CC3CC(C2)CC1C3 [Compound 16]	> 100	> 100	> 100	> 200	> 100	
CC(C)=CCC/C(C)=C/CN [Compound 17]	> 100	21	40	32	> 100	
NC1C2CC3CC(C2)CC1C3 (centres unmarked) [Compound 18]	> 100	51	50	71	> 100	
O=C1C2CC3CC(C2)CC1C3 [Compound 19]					> 100	EC50 [1]: > 100 µM; EC50 ([2]; Leishmania donovani): > 100 µM; EC50 ([3]; U2OS): > 100 µM; EC50 ([4]; read-out: T. brucei BSF EC50): > 200 µM
CC(C)=CCC/C(C)=C/CNCCN [Compound 20]	> 100	6	> 100	2.2	> 100	
CC(C)=CCC/C(C)=C/CNCCNC1C2CC3CC(C2)CC1(O)C3 (centres unmarked) [Compound 21]	14	1.27	3	3.2	6.8	EC50 ([2]; promastigotes): 1.3 µM
CC(C)=CCC/C(C)=C/CNCCNC1C2CC3CC1CC(O)(C3)C2 (centres unmarked) [Compound 22]	23	3.54	7.5	2.9	29	EC50 ([2]; promastigotes): 3.5 µM
CC(C)=CCC/C(C)=C/CNCCNC1C2CC3CC1CC(C2)C3O (centres unmarked) [Compound 23]	20	2.3	4.3	1.8	17	
CC(C)=CCC/C(C)=C/CNCCNC1C2CC3CC(C2)C(O)C1C3 (centres unmarked) [Compound 24]	14	1.1	3.2	1.8	14	
CCCCc1oc2ccccc2c1C(=O)c1cc(I)c(OCCN(CC)CC)c(I)c1 [amiodarone]						survival in T. cruzi infection (T. cruzi): 40%
O=C(Cn1ccnc1[N+](=O)[O-])NCc1ccccc1 [benznidazole]						IC50 ([3]; 72 h, U2OS host cells, 3 days of compound incubation, Figure 2D, read-out: IC50, intracellular T. cruzi amastigote survival): 1.71 µM; survival of T. cruzi infected mice, in words (T. cruzi Dm28c; 40 days after infection): protected all the mice from death; parasitemia, in words (T. cruzi Dm28c; entire experimental period): complete suppression of parasitemia
CCCCCCCCCCCCCCCCOP(=O)([O-])OCC[N+](C)(C)C [miltefosine]						IC50 ([2]; Leishmania donovani, 72 h, Figure 2E, read-out: IC50, L. donovani promastigote growth): 0.171 µM; IC50 [6]: 1.51 µM; parasite burden in liver (LDU) (L. donovani amastigotes; 5 days of treatment): 142 ± 24 LDU; parasite reduction (L. donovani amastigotes; versus vehicle-treated group): 87.5%; host cell (THP-1) toxicity, in words [7]: no host cell toxicity was observed at the highest tested dose
N=C(N)c1ccc(OCCCCCOc2ccc(C(=N)N)cc2)cc1 [pentamidine, reference compound]						IC50 ([4]; 3 days (72 h) of compound incubation, Figure 2A, read-out: IC50, T. brucei trypomastigote viability): 0.15 µM
